What is called half-life is the time needed for the level to fall by half in the phase considered. Read a low half-life as rapid decline. The term EC50 denotes the concentration at which the effect is half-maximal.

Molecules are shown by their SMILES. Active and inactive are the calls of the source.

We go through 20 compounds from ChEMBL document CHEMBL5576110, “Identification of AdipoRon analogues as novel activators of AMPK for the treatment of type 2 diabetes” (RSC Med Chem, 2024).

The test system of series [1] is C2C12. In words: Agonist activity at adiponectin receptor in mouse C2C12 cells assessed as increase in AMPK phosphorylation at 10 uM measured after 2 hrs by Western blot analysis. Format: cell-based. Particulars: filed as agonist. Background: A western blot detects proteins with antibodies after separation by electrophoresis.
In series [2] the test system is C2C12. In words: Induction of glucose consumption in mouse C2C12 cells at 10 uM measured after 12 hrs (reference value: 100%). Format: functional.
Series [3] concerns C2C12. In words: Agonist activity at adiponectin receptor in mouse C2C12 cells assessed as increase in ACC phosphorylation measured after 2 hrs by Western blot analysis. Format: cell-based. As to conditions: filed as agonist, dose 0.1-20 µM.
Series [4] deals with 5'-AMP-activated protein kinase (Mus musculus) (UniProt Q5EG47+Q8BRK8+Q6PAM0+O54950+Q91WG5+Q9R078+Q8BGM7). Nature of the series: Induction of AMPK phosphorylation in mouse C2C12 cells at 10 uM measured after 1 to 12 hrs by Western blot analysis. As to conditions: filed as activator, time 1-12 hrs. Format: cell-based.
For series [5], the target named is T1, Acetyl-CoA carboxylase (Homo sapiens) (UniProt Q13085+O00763). In words: Induction of ACC phosphorylation in human HepG2 cells measured after 2 hrs by Western blot analysis. Format: cell-based. Particulars: filed as activator, dose 0.1-20 µM.
Series [6] relates to HepG2. In words: Induction of AMPK phosphorylation in human HepG2 cells at 0.1 to 20 uM measured after 2 hrs by Western blot analysis. Format: cell-based. Particulars: filed as activator, dose 0.1-20 µM.
Series [7] has as its target T1, Acetyl-CoA carboxylase (Homo sapiens). In words: Induction of ACC phosphorylation in human HepG2 cells measured at 10 uM by Western blot analysis. Format: cell-based. Particulars: filed as activator, time 0.5-12 hrs, TDE = time-dependent effect.
Series [8] deals with HepG2. Nature of the series: Induction of AMPK in human HepG2 cells at 10 uM measured after 0.5 to 12 hrs by Western blot analysis. Format: cell-based. As to conditions: filed as activator, time 0.5-12 hrs.
Series [9] has as its system C2C12. In words: Cytotoxicity against mouse C2C12 cells at 5 to 20 uM measured after 72 hrs by MTT assay. Format: toxicity, cell-based. Particulars: c2c12, 72 h, dose 5-20 µM. A general note: Formazan colour is commonly taken as a measure of viable cells.
Series [10] deals with HepG2. In words: Cytotoxicity against human HepG2 cells at 5 to 20 uM measured after 72 hrs by MTT assay. Format: toxicity, cell-based. As to conditions: hepg2, 72 h, dose 5-20 µM.
Series [11] can be described thus: Stability in human liver microsomes assessed as parent compound remaining preincubated for 5 mins followed by NADPH addition measured after 45 mins by LC/MS analysis. Particulars: time 50 min, read-out: Stability. Format: ADME, Microsome.
Series [12] can be described thus: Half life in human liver microsomes by LC/MS analysis. Format: ADME, Microsome. On the technique in general: Microsomes from liver hold many membrane-bound enzymes, among them those of drug oxidation.
Series [13] can be described thus: Stability in mouse liver microsomes assessed as parent compound remaining preincubated for 5 mins followed by NADPH addition measured after 45 mins by LC/MS analysis. Format: ADME, Microsome. As to conditions: time 50 min, read-out: Stability.
Series [14] in a line: Intrinsic clearance in human liver microsomes preincubated for 5 mins followed by NADPH addition measured after 45 mins by LC/MS analysis. Format: ADME, Microsome. As to conditions: time 50 min, read-out: CLH.
Series [15] is described as follows: Half life in mouse liver microsomes by LC/MS analysis. Format: ADME, Microsome.
Series [16] is described as follows: Intrinsic clearance in mouse liver microsomes preincubated for 5 mins followed by NADPH addition measured after 45 mins by LC/MS analysis. Format: ADME, Microsome. As to conditions: time 50 min, read-out: CLH.
Series [17] relates to Mus musculus. In words: Hypoglycemic activity in IG dosed lean C57BL/6J mouse assessed as reduction in blood glucose level administered 2 hrs prior to glucose challenge measured up to 90 mins by IPGTT. Format: functional, organism-based. As to conditions: dose 50-100 mg/kg, time 3.5 hrs.
Series [18] deals with Mus musculus. In words: Anti-hyperglycemic activity in db/db mouse assessed as reduction in blood glucose level at 100 mg/kg, IG administered once daily for 2 to 6 weeks measured weekly during compound dosing. Format: functional, organism-based. As to conditions: time 2-6 weeks.
For series [19], the system named is Mus musculus. In words: Anti-hyperglycemic activity in db/db mouse assessed as improvement in insulin resistance at 100 mg/kg, IG administered once daily for 6 weeks by insulin tolerance test. Format: functional, organism-based.
Series [20] in a line: Toxicity in db/db mouse assessed as effect on body weight at 100 mg/kg, IG administered once daily for 2 to 6 weeks measured weekly during compound dosing. Format: organism-based. As to conditions: in vivo, po, time 2-6 weeks.
For series [21], the system named is Mus musculus. In words: Hypoglycemic activity in lean C57BL/6J mouse assessed as reduction in blood glucose level at 100 mg/kg, IG administered 2 hrs prior to glucose challenge measured up to 90 mins by IPGTT. Particulars: time 3.5 hrs. Format: functional, organism-based.
A short description of series [22]: Agonist activity at adiponectin receptor in mouse C2C12 cells assessed as increase in AMPK phosphorylation. Format: cell-based.
The subject of series [23] is Mus musculus. In words: Hypoglycemic activity in lean C57BL/6J mouse assessed as reduction in blood glucose level at 10 mg/kg, IG administered 2 hrs prior to glucose challenge measured up to 90 mins by IPGTT. Particulars: time 3.5 hrs. Format: functional, organism-based.

Regarding `CC(C)(Oc1ccc(C(=O)c2ccc(Cl)cc2)cc1)C(=O)NC1CCN(C(=O)/C=C/c2ccccc2)CC1`, the outcome with C2C12 [1] was Active. Also, in the series with C2C12 [2], the Activity is listed as 117.3%.

On to `CC(C)(Oc1ccc(C(=O)c2ccccc2)cc1)C(=O)N1CCC(NC(=O)/C=C/c2ccccc2)CC1`, for which, in the series on C2C12 [1], the result was Active. For the same compound, the Activity in the series with C2C12 [2] was 117.6%.

As to `COc1cc(/C=C/C(=O)N2CCN(C(=O)C(C)(C)Oc3ccc(C(=O)c4ccc(Cl)cc4)cc3)CC2)ccc1O`, the outcome (with C2C12 [1]; in series [4]; in the series on HepG2 [6]; with HepG2 [8]; in the series with Mus musculus [18]; with Mus musculus [19]) was Active. The Activity in the series with C2C12 [2] is 141.7%; in the series with C2C12 [3], “Dose-Dependent Effect”; in series [5] it was “Dose-Dependent Effect”; in series [7] it was “Tde”; in the series with C2C12 [9], “Non-Toxic”; in the series on HepG2 [10], “Non-Toxic”. Besides, the values for the Activity entry (in the series on Mus musculus [17]; in series [20]) were “Dose-Dependent Effect” and “Non-Toxic”, respectively. The figures for the remaining at 0.75 h in [11] and in [13] were 69% and 38%, respectively. Also, the half-life in series [12] worked out at 87 min; in series [15], 33 min. In addition, the figures for the CLint scaled in series [14] and in series [16] were 1.26 L/h/kg and 9.36 L/h/kg, respectively.

For `COc1cc(/C=C/C(=O)N2CCC(NC(=O)C(C)(C)Oc3ccc(C(=O)c4ccccc4)cc3)CC2)ccc1O`, in the series on C2C12 [1], the outcome was Active. In addition, the Activity in the series with C2C12 [2] is reported as 115.2%.

Regarding `COc1cc(/C=C/C(=O)N2CCN(C(=O)C(C)(C)Oc3ccc(C(=O)c4ccccc4)cc3)CC2)ccc1O`, the result with C2C12 [1] was Active. In the series with C2C12 [2], this compound registered an Activity of 136.4%.

As for `COc1ccc(/C=C/C(=O)N2CCN(C(=O)C(C)(C)Oc3ccc(C(=O)c4ccccc4)cc3)CC2)cc1OC`, in the series on C2C12 [1], the outcome was Active. Also, in the series on C2C12 [2], the Activity is on record as 135.8%.

Consider `COc1cc(/C=C/C(=O)NC2CCN(C(=O)C(C)(C)Oc3ccc(C(=O)c4ccccc4)cc3)CC2)ccc1O`, for which, in the series with C2C12 [1], the outcome was Active. Moreover, the Activity with C2C12 [2] is 128.5%.

`COc1ccc(/C=C/C(=O)N2CCN(C(=O)C(C)(C)Oc3ccc(C(=O)c4ccc(Cl)cc4)cc3)CC2)cc1OC`: the result in the series on C2C12 [1] was Active. The compound further returned an Activity with C2C12 [2] of 138.5%.

For the compound `COc1ccc(/C=C/C(=O)N2CCC(NC(=O)C(C)(C)Oc3ccc(C(=O)c4ccc(Cl)cc4)cc3)CC2)cc1OC`, the result with C2C12 [1] was Active. For the same compound, the Activity in the series with C2C12 [2] is recorded as 125.1%.

As to `CC(C)(Oc1ccc(C(=O)c2ccc(Cl)cc2)cc1)C(=O)N1CCC(NC(=O)/C=C/c2ccccc2)CC1`, the result with C2C12 [1] was Active. This compound also returned an Activity in the series on C2C12 [2] of 113%.

`O=C(COc1ccc(C(=O)c2ccccc2)cc1)NC1CCN(Cc2ccccc2)CC1`: the result with C2C12 [1] and in the series with Mus musculus [21] was Active. In the series on C2C12 [2], this compound returned an Activity of 135.2%. The EC50 in series [22] is approximately 10 µM.

Turning to `COc1cc(/C=C/C(=O)N2CCC(NC(=O)C(C)(C)Oc3ccc(C(=O)c4ccc(Cl)cc4)cc3)CC2)ccc1O`, in the series on C2C12 [1], the result was Active. The Activity with C2C12 [2] came to 126.1%.

With `O[C@@H]1CO[C@H]2[C@@H]1OC[C@H]2Oc1nc2nc(-c3ccc(-c4ccccc4)cc3)c(Cl)cc2[nH]1`, in the series on Mus musculus [23], the result was Active.

`COc1ccc(/C=C/C(=O)N2CCC(NC(=O)C(C)(C)Oc3ccc(C(=O)c4ccccc4)cc3)CC2)cc1OC`: the result in the series on C2C12 [1] was Active. The compound further came in with an Activity with C2C12 [2] of 104.5%.

For `COc1ccc(/C=C/C(=O)NC2CCN(C(=O)C(C)(C)Oc3ccc(C(=O)c4ccccc4)cc3)CC2)cc1OC`, the result in the series on C2C12 [1] was Active. Moreover, the Activity in the series with C2C12 [2] was determined as 116.7%.

As for `COc1ccc(/C=C/C(=O)NC2CCN(C(=O)C(C)(C)Oc3ccc(C(=O)c4ccc(Cl)cc4)cc3)CC2)cc1OC`, in the series with C2C12 [1], the outcome was Active. Further, the Activity in the series on C2C12 [2] was determined as 118.3%.

Regarding `O=C(c1ccc(F)cc1)C1CCN(CCn2c(=O)[nH]c3ccccc3c2=O)CC1` [KETANSERIN], the values for the remaining at 0.75 h in series [11] and in series [13] were 31% and 29%, respectively. Moreover, the half-life worked out at 28 min in [12] and 26 min in series [15]. Also, the CLint scaled in [16] was determined as 14.7 L/h/kg.

For the compound `CC(C)(Oc1ccc(C(=O)c2ccc(Cl)cc2)cc1)C(=O)N1CCN(C(=O)/C=C/c2ccccc2)CC1`, the outcome in the series with C2C12 [1] was Active. Also, the Activity with C2C12 [2] came to 129%.

`CC(C)(Oc1ccc(C(=O)c2ccccc2)cc1)C(=O)NC1CCN(C(=O)/C=C/c2ccccc2)CC1`: the outcome in the series with C2C12 [1] was Active. The compound also had an Activity in the series with C2C12 [2] of 121.3%.

With `CC(C)(Oc1ccc(C(=O)c2ccccc2)cc1)C(=O)N1CCN(C(=O)/C=C/c2ccccc2)CC1`, the outcome with C2C12 [1] was Active. In the series with C2C12 [2], this compound came in with an Activity of 132.5%.
